Assay results taken from patent publication US20130273649A1, “Culture medium for pluripotent stem cells” (UNIVERSITY OF SOUTHERN CALIFORNIA, priority 2012, published 2013).

Legend:
Format in all cases: cell-based
Axin2 = assay: Western blot of Axin2 in mouse EpiSCs; conditions: CD1 mouse EpiSCs treated 12 h
Axin1 = assay: Western blot of Axin1 in mouse EpiSCs; conditions: CD1 mouse EpiSCs treated 12 h
Protocol: (A) TOPFlash™ assay in CD1 mouse EpiSCs treated with the indicated inhibitors for 12 hours. Data represent mean±s.d. of three biological replicates. (B) Representative phase contrast images of CD1 mouse EpiSCs cultured in the indicated conditions for 7 days. (C) Western blot analysis of CD1 mouse EpiSCs treated with the indicated inhibitors for 12 h. (D) qRT-PCR analysis of Axin1 and Axin2 mRNA levels in CD1 mouse EpiSCs stably transfected with Axin1 shRNA or Axin2 shRNA. Data represent mean±s.d. of three biological replicates. (E) Colony assay on CD1 mouse EpiSCs stably transfected with scramble, Axin1, or Axin2 shRNAs. Cells were plated onto a 6-well plate at a density of 5,000 cells/well and cultured in CHIR/IWR-1. Colonies were counted 7 days after plating. Data represent the total combined numbers of colonies from two independent experiments in which each shRNA-transfected group was cultured in one well of a 6-well plate. (F) Representative phase contrast images of CD 1 mouse EpiSCs stably transfected with the indicated shRNAs and cultured in CHIR/IWR-1 for 7 days. (G) Western blot analysis of CD1 mouse EpiSCs overexpressing Flag-tagged Axin1 or Axin2. (H) Representative phase contrast images of CD1 mouse EpiSCs overexpressing Axin1 or Axin2 and cultured in CHIR for 7 days. Axin2-overexpressing EpiSCs could be continually passaged in CHIR alone. Scale bars, 50 μm (B, F and H)
Next, we investigated the mechanism by which CHIR/XAV promotes EpiSC self-renewal. By inhibiting GSK3 phosphorylation of β-catenin, CHIR stabilizes β-catenin, which then trans-locates to the nucleus and forms complexes with DNA-binding proteins, including TCFs, to activate transcription (Logan and Nusse, 2004). […] Axin has two isoforms, Axin1 and Axin2. […] The expression level of Axin2, but not Axin1, was also elevated by CHIR treatment (FIG. 4C), an outcome consistent with previous findings that Axin2 is a direct downstream target of Wnt/β-catenin signaling (Jho et al., 2002). […]

mouse EpiSCs = assay: Mouse EpiSC self-renewal culture; conditions: for EpiSC self-renewal / maintenance of undifferentiated state: CD1 mouse EpiSCs, GMEM/10% FBS, no FGF2/activin unless named, CHIR 3 μM, PD0325901 1 μM, XAV939 2 μM, IWR-1 2.5 μM, IWP-2 2.5 μM, Pyrvinium 100 nM
Excerpt: We therefore reasoned that if CHIR induces EpiSC differentiation through stabilization of β-catenin, de-stabilization of β-catenin might promote EpiSC self-renewal. We tested this hypothesis by administering the tankyrase inhibitor XAV939 to mouse EpiSC cultures. XAV939-mediated inhibition of tankyrase stabilizes Axin, leading to the formation of the β-catenin destruction complex, composed of GSK3, Axin and adenomatous polyposis coli (APC) (Huang et al., 2009). […] EpiSCs cultured in CHIR/XAV could be routinely passaged by single-cell dissociation and replating onto gelatin-coated dishes, and could be cryo-preserved and recovered at high efficiency by standard techniques.
final concentrations: CHIR99021 (3 μM), PD0325901 (1 μM), XAV939 (Sigma, 2 μM), IWR-1 (Sigma, 2.5 μM), IWP-2 (Stemgent, 2.5 μM), Pyrvinium (Sigma, 100 nM), recombinant human FGF2 (PeproTech, 10 ng/ml), and recombinant human activin A (PeproTech, 10 ng/ml). CHIR99021 and PD0325901 were synthesized in the Division of Signal Transduction Therapy, University of Dundee, UK.
The basal medium for mouse EpiSC culture is the conventional mouse ESC medium, which consists of GMEM (Sigma) supplemented with 10% fetal bovine serum (FBS) (Hyclone), 2 mM L-glutamine (Invitrogen), 1 mM sodium pyruvate (Invitrogen), 1% nonessential amino acids (Invitrogen), and 0.1 mM (3-mercaptoethanol. Mouse EpiSCs were derived and maintained in the basal medium supplemented with FGF2/activin, CHIR/XAV, or CHIR/IWR-1. The basal medium for rat EpiSC culture is N2B27 (Tong et al., 2011), which was prepared by mixing 500 ml of DMEM/F12 (Invitrogen) with 500 ml of Neurobasal™ medium (Invitrogen), and adding 5 ml of N2 (Invitrogen), 10 ml of B27 (Invitrogen), 5 ml of Glutamax™ (Invitrogen), and 1 ml of 0.1 M β-mercaptoethanol (Sigma). The basal medium for human ESC culture consists of Knockout™ DMEM/F12 supplemented with 20% KSR (Invitrogen), 1% nonessential amino acids, 2 mM L-glutamine, and 0.1 mM (3-mercaptoethanol. Human ESCs were cultured in the basal medium supplemented with FGF2, CHIR/XAV, or CHIR/IWR-1.
Post-implantation epiblasts were isolated from mouse or rat embryos and dissociated into small clumps as previously described (Chenoweth and Tesar, 2010). Epiblast fragments were placed into 4-well plates pre-coated with 0.1% gelatin (for mouse epiblasts) or pre-seeded with γ-irradiated mouse embryonic fibroblasts (MEFs) (for rat epiblasts) and cultured in either the FGF2/activin or the CHIR/XAV conditions. Emerging EpiSCs were trypsinized and expanded every 2-3 days at a subculture ratio of 1:4. Animal experiments were performed according to the investigator's protocols approved by the University of Southern California Institutional Animal Care and Use Committee.

SMILES	amount of Axin2 protein (Axin2)	amount of Axin1 protein (Axin1)	EpiSC self-renewal / maintenance of undifferentiated state (mouse EpiSCs)	time EpiSCs remained undifferentiated (mouse EpiSCs; XAV939 alone, before passaging)	self-renewal of β-catenin−/− EpiSCs overexpressing Axin2 (mouse EpiSCs; 3 μM CHIR after removal of FGF2/activin)	self-renewal of Axin1-overexpressing EpiSCs (mouse EpiSCs; Axin1-EpiSCs, CHIR after removal of FGF2/activin)	self-renewal of Axin2-overexpressing EpiSCs (mouse EpiSCs; Axin2-EpiSCs, CHIR alone after removal of FGF2/activin)
Oc1nc(-c2ccc(C(F)(F)F)cc2)nc2c1CSCC2 [XAV939, 3,5,7,8-Tetrahydro-2-[4-(trifluoromethyl)phenyl]-4H-thiopyrano[4,3-d]pyrimidin-4-one]	significantly increased	significantly increased	differentiated after passaging	approximately 1 week			
Cc1c[nH]c(-c2cnc(NCCNc3ccc(C#N)cn3)nc2-c2ccc(Cl)cc2Cl)n1 [CHIR99021, 6-((2-((4-(2,4-Dichlorophenyl)-5-(4-methyl-1H-imidazol-2-yl)pyrimidin-2-yl)amino)ethyl)amino)nicotinonitrile]	elevated	not Axin1	rapidly differentiated or died		differentiated after the removal of FGF2/activin, even in the presence of CHIR	rapidly differentiated	sufficient to support robust and long-term expansion of undifferentiated Axin2-EpiSCs
